Assay results as given in paper PMC8464850, “Sulfonium Ligands of the α7 nAChR” (Molecules, 2021).
Values belong to the compound of their own block, whether it stands above or below them.

Key:
α7 nAChR [1] = target: T1, α7 nAChR (Homo sapiens, UniProt P36544); experiment: Inhibition of α7 ACh-evoked responses; assay type: cell-based
T1 construct: expressed in transfected cells; host or cells: Xenopus laevis oocytes (injected RNA)
Protocol: Figure 4 Effects sulfonium compounds on α7 ACh-evoked net-charge responses. (A) Effects of the sulfonium compounds at 100 µM co-applied with 60 µM relative to responses to 60 µM ACh applied alone. Data are the averages (±SEM) from seven or eight cells under each condition. (B) Effects of select sulfonium compounds at 1 mM co-applied with 60 µM relative to responses to 60 µM ACh applied alone. Data are the averages (±SEM) from seven or eight cells under each condition. Statistical significance was determined by pairwise t-test with p values corrected for multiple comparisons; * p < 0.05, ** p < 0.001.
The sulfonium compounds that were active with TQS but produced little inhibition of ACh response at a concentration of 100 µM were tested as inhibitors of ACh response at a concentration of 1 mM (Figure 4B).
We tested S8 across a range of concentrations for its ability to inhibit 60 µM ACh responses (Figure 5A). Note that we use 60 µM as an ACh control because this concentration gives nearly maximal (93%) net-charge responses, with the time course of the responses roughly following the speed of solution exchange. […] We tested whether inhibition of α7 responses by S8 was surmountable by increasing ACh concentration, consistent with a competitive mechanism of inhibition. However, since α7 responses to concentrations of ACh greater than 60 µM occur more rapidly than solution exchange in the chamber, we first pre-applied 5 µM S8 prior to the co-application of 5 µM S8 with either 60 µM or 1 mM ACh (Figure 5B). The 60 µM net-charge responses were reduced to 28 ± 2% of controls (n = 8) and 60 µM peak currents to 21 ± 3 % controls. The 1 mM net-charge responses were reduced to 56 ± 6 % of those obtained without S8 co-application, although the S8 co-application increased the peak-current amplitudes compared to 60 µM controls from 1.78 ± 0.15 to 3.72 ± 0.81 (n = 8).
Figure 5 Inhibition of α7 ACh-evoked responses by S8. (A) Concentration-response studies of α7 net-charge responses to 60 µM ACh co-applied with increasing concentrations of S8. To confirm the stability of the ACh responses, applications of ACh plus S8 were alternated with applications of ACh alone. Data are the averages of eight cells (±SEM). See text for curve-fit values. (B) Effects of 5 µM S8 on responses to either 60 µM or 1 mM ACh. The traces shown across the top are the averaged raw data from seven cells, each normalized to the peak current of the first ACh control response shown. In order to assure that the S8 was present at 5 µM throughout the ACh-evoked responses, a 30 s pre-application was made of 5 µM S8 alone. The lower traces show averaged responses to 60 µM or 1 mM ACh alone or with the 5 µM S8 pre- and co-application. The details of the data are described in Methods.
(§1) Experiments were conducted using OpusXpress 6000A (Molecular Devices, Union City, CA, USA). Both the voltage and current electrodes were filled with 3 M KCl. Oocytes were voltage-clamped at −60 mV at room temperature (24 °C). The oocytes were bath-perfused with Ringer’s solution (115 mM NaCl, 2.5 mM KCl, 1.8 mM CaCl2, 10 mM HEPES, and 1 μM atropine, pH 7.2) at 2 mL/min for α7 receptors, or 4 mL/min for heteromeric nAChR. To evaluate the effects of experimental compounds, responses were compared to control ACh-evoked responses, defined as the average of two initial applications of ACh made before test applications. ACh control concentrations were 60 µM for α7 receptors; 100 µM for α4(3)β2(2) and α3β4 receptors; 30 µM for α4β2α6β2β3 and muscle-type (αβ1εδ) receptors; and 10 µM for α4(3)β2(2) and α4(2)β2(2)α5 receptors.
Solutions were applied from 96-well plates via disposable tips. Drug applications were 12 s in duration, followed by 181 s washout periods for α7 receptors, or 6 s in duration followed by 301 s washout periods for heteromeric nAChR. […]

human α7 receptors = target: T2, human α7 receptors (Homo sapiens, UniProt P36544); set-up: method as in PMID 12183330; details: 60 µM ACh; cited from earlier work
T2 construct: expressed in transfected cells; host or cells: Xenopus laevis oocytes (injected RNA)
T2 sequence (P36544 23-502): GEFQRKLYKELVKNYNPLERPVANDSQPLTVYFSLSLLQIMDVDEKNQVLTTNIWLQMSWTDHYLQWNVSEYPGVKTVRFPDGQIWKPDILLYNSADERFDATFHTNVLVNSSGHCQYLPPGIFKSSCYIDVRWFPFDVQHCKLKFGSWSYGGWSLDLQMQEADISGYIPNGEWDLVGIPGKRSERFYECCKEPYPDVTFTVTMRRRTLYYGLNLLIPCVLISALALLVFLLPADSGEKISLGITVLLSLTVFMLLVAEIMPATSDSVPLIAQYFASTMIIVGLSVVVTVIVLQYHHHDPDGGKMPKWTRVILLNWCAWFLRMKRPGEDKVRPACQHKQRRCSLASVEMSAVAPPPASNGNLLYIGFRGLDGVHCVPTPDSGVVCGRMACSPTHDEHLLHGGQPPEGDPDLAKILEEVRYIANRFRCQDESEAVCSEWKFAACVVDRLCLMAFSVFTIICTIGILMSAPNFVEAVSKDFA

α7 nAChR [2] = target: T1, α7 nAChR; experiment: α7 responses on co-application with the type II PAM TQS (silent agonism); assay type: cell-based
Protocol: (§2) Compounds were co-applied at a concentration of 100 µM with 30 µM racemic TQS (Figure 3A). All compounds except S4, S5, and S8 gave large responses when co-applied with TQS, consistent with silent agonism of α7 (see Table S1 for ANOVA). Active compounds were also evaluated across a range of concentrations with the alternative PAM, PNU-120596 (Figure 3B). The curve-fit values for Imax (Table 1) should be taken only as approximation of the relative efficacies of the compounds, due to the large variability frequently observed in PNU-120596-potentiated responses, as evidenced by the large SEMs of the responses obtained with high concentrations.
(§3) Figure 3 Responses of α7 nAChR to sulfonium compounds coapplied with PAMs. (A) Potentiation of α7 responses with 30 µM racemic TQS. Shown are the average net-charge responses of seven or eight oocytes ± SEM. (B) Concentration-response studies of peak currents generated by compounds that gave positive responses with TQS, coapplied with 10 µM PNU-120596. Each point represents the average (±SEM) of at least four oocytes.
The human nAChR clones were obtained from Jon Lindstrom (University of Pennsylvania, Philadelphia, PA, USA). Mouse muscle subunit clones were obtained from Jim Boulter (Salk Institute, La Jolla, CA, USA) and Paul Gardner (Dartmouth, Hanover, NH, USA). The human resistance-to-cholinesterase 3 (RIC3) clone was obtained from Millet Treinin (Hebrew University, Jerusalem, Israel) and co-injected with α7 to improve the level and speed of α7 receptor expression without affecting the pharmacological properties of the receptors. Subsequent to linearization and purification of the plasmid DNAs, RNAs were prepared using the mMessage mMachine in vitro RNA transcription kit (Ambion, Austin, TX, USA).
as §1
(§4) Solutions were applied from 96-well plates via disposable tips. Drug applications were 12 s in duration, followed by 181 s washout periods for α7 receptors, or 6 s in duration followed by 301 s washout periods for heteromeric nAChR. The responses were calculated as both peak current amplitudes and net charge, as previously described. Data were collected at 50 Hz, filtered at 20 Hz for α7 receptors or filtered at 5 Hz for heteromeric nAChR, and analyzed by Clampfit (Molecular Devices, San Jose, CA, USA) and Excel (Microsoft, Redmond, WA, USA). Data were expressed as means ± SEM from at least four oocytes for each experiment and plotted with Kaleidagraph 4.5.2 (Abelbeck Software, Reading, PA, USA). Multi-cell averages were calculated for comparisons of complex responses. Averages of the normalized data were calculated for each of the 10,322 points in each of the 206.44 s traces (acquired at 50 Hz), as well as the standard errors for those averages.

α7 nAChR [3] = target: T1, α7 nAChR; experiment: α7 concentration-response on co-application with 10 µM PNU-120596; assay type: cell-based; details: peak currents, co-applied with 10 µM PNU-120596, Hill fit
Protocol: as §2, §3, §1, §4

α3β4 nAChR = target: T3, α3β4 nAChR (Homo sapiens, UniProt P30926+P32297); experiment: Inhibition of α3β4 100 µM ACh-evoked peak currents; assay type: cell-based
T3 construct: expressed in transfected cells; host or cells: Xenopus laevis oocytes (injected RNA)
T3 sequence (P32297 32-505): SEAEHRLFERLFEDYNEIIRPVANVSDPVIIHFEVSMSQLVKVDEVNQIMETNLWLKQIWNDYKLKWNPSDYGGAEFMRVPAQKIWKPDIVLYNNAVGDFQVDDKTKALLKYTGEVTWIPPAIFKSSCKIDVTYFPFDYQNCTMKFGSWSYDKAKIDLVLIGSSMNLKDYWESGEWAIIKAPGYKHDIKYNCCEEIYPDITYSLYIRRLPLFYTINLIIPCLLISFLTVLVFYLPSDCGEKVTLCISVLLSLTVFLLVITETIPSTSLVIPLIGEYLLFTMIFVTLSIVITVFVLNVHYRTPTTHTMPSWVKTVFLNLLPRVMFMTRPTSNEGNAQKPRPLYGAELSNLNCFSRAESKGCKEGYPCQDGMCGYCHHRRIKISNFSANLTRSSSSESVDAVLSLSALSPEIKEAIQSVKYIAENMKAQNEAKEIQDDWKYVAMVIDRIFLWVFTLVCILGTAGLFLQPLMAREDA
T3 sequence (P30926 22-498): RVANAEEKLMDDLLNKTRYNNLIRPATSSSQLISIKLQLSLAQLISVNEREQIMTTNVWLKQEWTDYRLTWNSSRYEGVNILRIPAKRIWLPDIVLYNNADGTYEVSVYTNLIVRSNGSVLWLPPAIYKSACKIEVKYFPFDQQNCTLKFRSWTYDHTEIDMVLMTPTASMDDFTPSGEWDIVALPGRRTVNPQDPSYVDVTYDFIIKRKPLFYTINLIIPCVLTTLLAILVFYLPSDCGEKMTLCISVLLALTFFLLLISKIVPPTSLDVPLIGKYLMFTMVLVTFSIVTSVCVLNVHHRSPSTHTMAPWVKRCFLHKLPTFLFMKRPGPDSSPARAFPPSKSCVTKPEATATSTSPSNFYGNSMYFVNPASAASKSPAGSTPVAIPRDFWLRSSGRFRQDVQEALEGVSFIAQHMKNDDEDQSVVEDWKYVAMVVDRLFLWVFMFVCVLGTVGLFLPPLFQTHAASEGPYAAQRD
Protocol: Although none of the other sulfonium compounds activated neuronal heteromeric receptors, several of them produced inhibition of ACh-evoked responses. Shown in Figure 7A are concentration-response studies for the compounds that were active antagonists of α3β4 nAChR (Table 3). Some compounds were also tested as antagonists of α4β2 subtypes formed with concatamers (Figure 7B).
Figure 7 Inhibition of heteromeric nAChR by sulfonium compounds. (A) Inhibition of α3β4 100 µM ACh-evoked peak currents by the co-application of the sulfonium compounds. Data are the averaged of six to eight oocytes (±SEM). To confirm the stability of the ACh responses, applications of ACh plus the sulfonium compounds were alternated with applications of ACh alone. (B) Inhibition of ACh control peak-current responses of α4-containing nAChR formed with concatamers by 100 µM of the sulfonium compounds indicated. Data are the average of six to eight oocytes (±SEM).
as §1, §4

ganglionic (α3β4) nAChR = system: ganglionic (α3β4) nAChR; set-up: method as in earlier work; details: 100 µM suplatast; ref 29 (Zhou et al.); cited from earlier work
[4] = set-up: method as in PMID 11456386; details: cited from earlier work
[5] = target: T4, muscle-type (α1β1εδ) receptors (Mus musculus, UniProt P02716+P04756+P20782); details: cited from earlier work
T4 construct: expressed in transfected cells; host or cells: Xenopus laevis oocytes (injected RNA)
T4 sequence (P04756 21-457): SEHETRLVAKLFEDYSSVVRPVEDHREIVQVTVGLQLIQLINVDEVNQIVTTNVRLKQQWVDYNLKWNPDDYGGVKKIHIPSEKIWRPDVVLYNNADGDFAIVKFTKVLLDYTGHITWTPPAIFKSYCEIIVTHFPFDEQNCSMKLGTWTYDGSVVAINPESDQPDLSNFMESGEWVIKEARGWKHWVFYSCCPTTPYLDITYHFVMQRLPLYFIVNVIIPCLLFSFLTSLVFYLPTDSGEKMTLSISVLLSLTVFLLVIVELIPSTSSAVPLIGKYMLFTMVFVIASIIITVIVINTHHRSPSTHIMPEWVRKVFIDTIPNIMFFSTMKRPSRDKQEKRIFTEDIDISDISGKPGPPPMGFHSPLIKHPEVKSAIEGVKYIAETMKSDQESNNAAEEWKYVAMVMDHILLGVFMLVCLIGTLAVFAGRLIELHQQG
T4 sequence (P09690 24-501 partner): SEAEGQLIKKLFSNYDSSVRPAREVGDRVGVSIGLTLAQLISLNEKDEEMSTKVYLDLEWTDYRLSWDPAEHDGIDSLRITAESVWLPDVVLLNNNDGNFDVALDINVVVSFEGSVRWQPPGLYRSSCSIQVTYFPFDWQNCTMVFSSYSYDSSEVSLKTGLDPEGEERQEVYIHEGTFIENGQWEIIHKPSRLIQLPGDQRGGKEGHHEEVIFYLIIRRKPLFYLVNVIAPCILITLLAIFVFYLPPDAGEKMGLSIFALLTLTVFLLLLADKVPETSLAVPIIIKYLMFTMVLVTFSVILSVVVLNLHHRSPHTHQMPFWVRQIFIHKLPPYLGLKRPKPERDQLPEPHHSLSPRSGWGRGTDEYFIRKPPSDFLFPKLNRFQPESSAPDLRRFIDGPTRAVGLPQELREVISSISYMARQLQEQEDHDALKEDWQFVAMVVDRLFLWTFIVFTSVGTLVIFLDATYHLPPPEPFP
T4 sequence (P20782 21-493): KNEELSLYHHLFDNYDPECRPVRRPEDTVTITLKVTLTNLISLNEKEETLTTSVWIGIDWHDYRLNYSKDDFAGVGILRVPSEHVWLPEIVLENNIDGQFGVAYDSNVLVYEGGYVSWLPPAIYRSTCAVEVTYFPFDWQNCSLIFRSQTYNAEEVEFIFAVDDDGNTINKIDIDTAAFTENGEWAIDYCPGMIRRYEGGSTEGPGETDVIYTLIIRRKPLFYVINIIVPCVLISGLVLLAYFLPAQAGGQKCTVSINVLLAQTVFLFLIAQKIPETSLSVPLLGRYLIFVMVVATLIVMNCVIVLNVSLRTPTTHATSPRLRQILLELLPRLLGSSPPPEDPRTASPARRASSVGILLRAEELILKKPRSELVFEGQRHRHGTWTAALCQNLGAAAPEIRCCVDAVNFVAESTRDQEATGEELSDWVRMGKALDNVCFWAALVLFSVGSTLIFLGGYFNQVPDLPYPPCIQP
T4 sequence (P02716 25-520): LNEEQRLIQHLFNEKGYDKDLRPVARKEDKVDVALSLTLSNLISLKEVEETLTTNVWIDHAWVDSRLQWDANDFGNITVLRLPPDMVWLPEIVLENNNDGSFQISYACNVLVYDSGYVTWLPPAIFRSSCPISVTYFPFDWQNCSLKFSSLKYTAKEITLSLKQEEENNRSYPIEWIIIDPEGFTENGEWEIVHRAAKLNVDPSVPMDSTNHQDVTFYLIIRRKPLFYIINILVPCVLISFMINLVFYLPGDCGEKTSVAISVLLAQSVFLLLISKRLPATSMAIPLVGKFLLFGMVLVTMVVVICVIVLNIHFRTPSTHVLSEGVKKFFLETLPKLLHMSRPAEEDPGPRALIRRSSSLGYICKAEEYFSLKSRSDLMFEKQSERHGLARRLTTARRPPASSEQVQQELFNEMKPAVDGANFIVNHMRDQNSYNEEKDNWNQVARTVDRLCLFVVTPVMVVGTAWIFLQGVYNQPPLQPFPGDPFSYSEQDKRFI

[6] = general knowledge, no reference given; cited from earlier work

T1 sequence (P36544 23-502): as the sequence (P36544 23-502) above

SMILES: CC(=O)OCC[N+](C)(C)C [ACh, Acetylcholine chloride, reference compound]
1 mM ACh peak-current amplitudes compared to 60 µM controls (α7 nAChR [1]; 1 mM ACh without S8, n = 8): 1.78 ± 0.15
net-charge response as share of maximal (human α7 receptors): 93%

α7 functional classification (silent agonist / inactive) (α7 nAChR [2]; inactive alone, active with a PAM = silent agonist): silent agonist activity
IMax (PNU Activation) (α7 nAChR [3]; approximation only): 2.2 ± 0.3
EC50 (α7 nAChR [3]; read-out: EC50 (PNU Activation)): 12.5 ± 4.9 µM
inhibition at 100 µM (α7 nAChR [1]; compound co-applied at 100 µM, net charge, read-out: inhibition of responses to 60 µM ACh): ~50%
IC50 (α3β4 nAChR; co-application with 100 µM ACh, peak currents): 4.5 ± 0.6 µM
SMILES: CCOCC(O)COc1ccc(NC(=O)CC[S+](C)C)cc1.Cc1ccc(S(=O)(=O)[O-])cc1 (centres unmarked) [Compound S6, (3-((4-(3-ethoxy-2-hydroxypropoxy)phenyl)amino)-3-oxopropyl)dimethylsulfonium tosylate, reference compound]
relative activity as α7 silent agonist / desensitizer (rank order) (α7 nAChR [2]; 100 µM with 30 µM TQS, Figure 3A, listed as suplatast): most desensitizing
surmountability of α3β4 inhibition by ACh (α3β4 nAChR; 5 µM S6, 1 mM ACh vs 30 µM ACh, data not shown): not surmountable by increasing ACh concentration
effect on ganglionic (α3β4) nAChR (ganglionic (α3β4) nAChR): channel block
distribution to the brain [4]: poor
oral bioavailability [4]: orally bioavailable

SMILES: C[N+](C)(C)C [TMA, tetramethylammonium ion]
activation of muscle-type receptors [5]: not an effective activator

SMILES: O=[N+]([O-])c1ccc(O)cc1 [para-nitrophenol]
pKa for the phenolic hydroxyl [6]: ~ 7
